Source: patent US20250171495A1, “MUTLI-TARGETED SERINE PROTEASE INHIBITORS FOR TREATMENT OF CANCER AND VIRAL INFECTION” (Washington University, priority 2023, published 2025)

Test system: VSV-SARS-CoV-2
Assay: microbe, parasite or virus in culture
Settings: Vesicular stomatitis virus, Calu-3, in Homo sapiens, read-out: VSV SARS CoV-2 Cell Entry EC50 (nM)

| Compound | EC50 |
| --- | --- |
| CCC(C)[C@H](NC(C)=O)C(=O)N[C@@H](CCC(N)=O)C(=O)N[C@@H](Cc1ccccc1)C(=O)N[C@@H](CCCNC(=N)N)C(=O)c1nc2ccccc2s1 (stereo partly drawn) [MM3116, N-[(S)-1-[N-(S)-1-[(1,3-benzothiazol-2-yl)carbonyl]-4-guanidinobutylcarbamoyl]-2-phenylethyl](S)-2-[(2S)-2-acetylamino-3-methylvalerylamino]glutaramide] | 3.6 nM |
| CC(=O)NCC(=O)N[C@@H](CCC(N)=O)C(=O)N[C@@H](Cc1ccccc1)C(=O)N[C@@H](CCCNC(=N)N)C(=O)c1nc2ccccc2s1 [MM3122, N-[(S)-1-[N-(S)-1-[(1,3-benzothiazol-2-yl)carbonyl]-4-guanidinobutylcarbamoyl]-2-phenylethyl](S)-2-[(acetylaminomethyl)carbonylamino]glutaramide] | 0.43 nM |
| CC(=O)N1CCC[C@H]1C(=O)N[C@@H](CCC(N)=O)C(=O)N[C@@H](Cc1ccccc1)C(=O)N[C@@H](CCCNC(=N)N)C(=O)c1nc2ccccc2s1 [MM3123, N-[(S)-1-[N-(S)-1-[(1,3-benzothiazol-2-yl)carbonyl]-4-guanidinobutylcarbamoyl]-2-phenylethyl](S)-2-[(S)-1-acetyl-2-pyrrolidinylcarbonylamino] glutaramide] | 0.86 nM |
| CC(=O)N[C@@H](CC(C)C)C(=O)N[C@@H](CCC(N)=O)C(=O)N[C@@H](Cc1ccccc1)C(=O)N[C@@H](CCCNC(=N)N)C(=O)c1nc2ccccc2s1 [MM3131, N-[(S)-1-[N-(S)-1-[(1,3-benzothiazol-2-yl)carbonyl]-4-guanidinobutylcarbamoyl]-2-phenylethyl](S)-2-[(S)-2-acetylamino-4-methylvalerylamino]glutaramide] | 10.7 nM |
| CC(=O)N[C@@H](CCC(N)=O)C(=O)N[C@@H](Cc1ccccc1)C(=O)N[C@@H](CCCNC(=N)N)C(=O)c1nc2ccccc2s1 [MM3144, N-[(S)-1-[N-(S)-1-[(1,3-benzothiazol-2-yl)carbonyl]-4-guanidinobutylcarbamoyl]-2-phenylethyl](S)-2-acetylaminoglutaramide] | 0.53 nM |
| CCC(C)[C@H](NC(C)=O)C(=O)N[C@@H](CCC(N)=O)C(=O)N[C@@H](CO)C(=O)N[C@@H](CCCNC(=N)N)C(=O)c1nc2ccccc2s1 (stereo partly drawn) [MM3177, N-[(S)-2-hydroxy-1-[N-(S)-1-[(1,3-benzothiazol-2-yl)carbonyl]-4-guanidinobutylcarbamoyl]ethyl](S)-2-[(2S)-2-acetylamino-3-methylvalerylamino]glutaramide] | 36 nM |
| CCC(C)[C@H](NC(C)=O)C(=O)N[C@@H](CCC(N)=O)C(=O)N[C@@H](C)C(=O)N[C@@H](CCCNC(=N)N)C(=O)c1nc2ccccc2s1 (stereo partly drawn) [MM3178, N-[(S)-1-[N-(S)-1-[(1,3-benzothiazol-2-yl)carbonyl]-4-guanidinobutylcarbamoyl]ethyl](S)-2-[(2S)-2-acetylamino-3-methylvalerylamino]glutaramide] | 10.8 nM |
| CCC(C)[C@H](NC(C)=O)C(=O)N[C@@H](CCC(N)=O)C(=O)N[C@H](C(=O)N[C@H](CCCNC(=N)N)C(=O)c1nc2ccccc2s1)C(C)C (stereo partly drawn) [MM3180-1, N-[(S)-2-methyl-1-[N-(R)-1-[(1,3-benzothiazol-2-yl)carbonyl]-4-guanidinobutylcarbamoyl]propyl](S)-2-[(2S)-2-acetylamino-3-methylvalerylamino]glutaramide] | 5.3 nM |
| CCC(C)[C@H](NC(C)=O)C(=O)N[C@@H](CCC(N)=O)C(=O)N[C@H](C(=O)N[C@@H](CCCNC(=N)N)C(=O)c1nc2ccccc2s1)C(C)C (stereo partly drawn) [MM3180-2, N-[(S)-2-methyl-1-[N-(S)-1-[(1,3-benzothiazol-2-yl)carbonyl]-4-guanidinobutylcarbamoyl]propyl](S)-2-[(2S)-2-acetylamino-3-methylvalerylamino]glutaramide] | 12 nM |
| CCC(C)[C@H](NC(C)=O)C(=O)N[C@@H](CCC(N)=O)C(=O)N[C@H](C(=O)N[C@@H](CCCNC(=N)N)C(=O)c1nc2ccccc2s1)C(C)O (stereo partly drawn) [MM3186, N-[(1S)-2-hydroxy-1-[N-(S)-1-[(1,3-benzothiazol-2-yl)carbonyl]-4-guanidinobutylcarbamoyl]propyl](S)-2-[(2S)-2-acetylamino-3-methylvalerylamino]glutaramide] | 18.5 nM |
| CCC(C)[C@H](NC(C)=O)C(=O)N[C@@H](CCC(N)=O)C(=O)N[C@@H](Cc1c[nH]c2ccccc12)C(=O)N[C@@H](CCCNC(=N)N)C(=O)c1nc2ccccc2s1 (stereo partly drawn) [MM3187, N-[(S)-2-(3-indolyl)-1-[N-(S)-1-[(1,3-benzothiazol-2-yl)carbonyl]-4-guanidinobutylcarbamoyl]ethyl](S)-2-[(2S)-2-acetylamino-3-methylvalerylamino]glutaramide] | 22 nM |
| CC(=O)N1CCC[C@H]1C(=O)N[C@@H](CO)C(=O)N[C@@H](CCCCN)C(=O)N[C@@H](CCCNC(=N)N)C(=O)c1nc2ccccc2s1 [MM3194A, N-[(S)-2-hydroxy-1-[N-(S)-5-amino-1-[N-(S)-1-[(1,3-benzothiazol-2-yl)carbonyl]-4-guanidinobutylcarbamoyl]pentylcarbamoy1]ethyl]-(S)-1-acetyl-2-pyrrolidinecarboxamide] | 613 nM |
| CCC(C)[C@H](NC(C)=O)C(=O)N[C@@H](CO)C(=O)N[C@@H](Cc1ccccc1)C(=O)N[C@@H](CCCNC(=N)N)C(=O)c1nc2ccccc2s1 (stereo partly drawn) [MM4009-2, N-[(S)-2-hydroxy-1-[N-(S)-1-[N-(S)-1-[(1,3-benzothiazol-2-yl)carbonyl]-4-guanidinobutylcarbamoyl]-2-phenylethylcarbamoyl]ethyl] (2S)-2-acetylamino-3-methylvaleramide] | 40.3 nM |
| CCC(C)[C@H](NC(C)=O)C(=O)N[C@@H](CCSC)C(=O)N[C@@H](Cc1ccccc1)C(=O)N[C@H](CCCNC(=N)N)C(=O)c1nc2ccccc2s1 (stereo partly drawn) [MM4027-1, N-[(S)-3-(methylthio)-1-[N-(S)-1-[N-(R)-1-[(1,3-benzothiazol-2-yl)carbonyl]-4-guanidinobutylcarbamoyl]-2-phenylethylcarbamoyl]propyl](2S)-2-acetylamino-3-methylvaleramide] | 92.3 nM |
| CCC(C)[C@H](NC(C)=O)C(=O)N[C@H](C(=O)N[C@@H](Cc1ccccc1)C(=O)N[C@@H](CCCNC(=N)N)C(=O)c1nc2ccccc2s1)C(C)O (stereo partly drawn) [MM4028-2, N-[(1S)-2-hydroxy-1-[N-(S)-1-[N-(S)-1-[(1,3-benzothiazol-2-yl)carbonyl]-4-guanidinobutylcarbamoyl]-2-phenylethylcarbamoyl]propyl](2S)-2-acetylamino-3-methylvaleramide] | 103 nM |
| CCC(C)[C@H](NC(C)=O)C(=O)N[C@@H](CCC(=O)O)C(=O)N[C@@H](Cc1ccccc1)C(=O)N[C@@H](CCCNC(=N)N)C(=O)c1nc2ccccc2s1 (stereo partly drawn) [MM4037-2, (S)-4-[(2S)-2-acetylamino-3-methylvalerylamino]-4-[N-(S)-1-[N-(S)-1-[(1,3-benzothiazol-2-yl)carbonyl]-4-guanidinobutylcarbamoyl]-2-phenylethylcarbamoyl]butyric acid] | 23.9 nM |
| CCC(C)[C@H](NC(C)=O)C(=O)N[C@H](Cc1cc2ccccc2[nH]1)C(=O)N[C@@H](Cc1ccccc1)C(=O)N[C@@H](CCCNC(=N)N)C(=O)c1nc2ccccc2s1 (stereo partly drawn) [MM4038, N-[(R)-2-(2-indolyl)-1-[N-(S)-1-[N-(S)-1-[(1,3-benzothiazol-2-yl)carbonyl]-4-guanidinobutylcarbamoyl]-2-phenylethylcarbamoy1]ethyl](2S)-2-acetylamino-3-methylvaleramide] | 226 nM |
| N=C(N)NCCC[C@H](NC(=O)[C@H](Cc1ccccc1)NC(=O)[C@H](N)Cc1c[nH]c2ccccc12)C(=O)c1nc2ccccc2s1 [PK-1-18A1, N-[(S)-1-[(1,3-benzothiazol-2-yl)carbonyl]-4-guanidinobutyl](S)-2-[(R)-2-amino-3-(3-indolyl)propionylamino]-3-phenylpropionamide] | 356 nM |
| N=C(N)NCCC[C@H](NC(=O)[C@H](Cc1ccccc1)NC(=O)[C@H](N)Cc1c[nH]c2ccccc12)C(=O)c1nc2ccc(C(=O)O)cc2s1 [PK-1-45A1, 2-[(S)-2-[(S)-2-[(R)-2-amino-3-(3-indolyl)propionylamino]-3-phenylpropionylamino]-5-guanidinovaleryl]-1,3-benzothiazole-6-carboxylic acid] | 105 nM |
| CC(=O)N[C@H](Cc1c[nH]c2ccccc12)C(=O)N[C@@H](Cc1ccccc1)C(=O)N[C@@H](CCCNC(=N)N)C(=O)c1nc2ccccc2s1 [PK-1-89A1, N-[(S)-1-[(1,3-benzothiazol-2-yl)carbonyl]-4-guanidinobutyl](S)-2-[(R)-2-acetylamino-3-(3-indolyl)propionylamino]-3-phenylpropionamide] | 140 nM |
| CC(=O)N[C@H](Cc1c[nH]c2ccccc12)C(=O)N[C@@H](Cc1ccccc1)C(=O)N[C@@H](CCCNC(=N)N)C(=O)c1nc2ccc(C(=O)O)cc2s1 [PK-1-93, 2-[(S)-2-[(S)-2-[(R)-2-acetylamino-3-(3-indolyl)propionylamino]-3-phenylpropionylamino]-5-guanidinovaleryl]-1,3-benzothiazole-6-carboxylic acid] | 141 nM |
| CC(=O)N[C@@H](Cc1c[nH]c2ccccc12)C(=O)N[C@@H](Cc1ccccc1)C(=O)N[C@@H](CCCNC(=N)N)C(=O)c1nc2ccccc2s1 [PK-1-102A1, N-[(S)-1-[(1,3-benzothiazol-2-yl)carbonyl]-4-guanidinobutyl](S)-2-[(S)-2-acetylamino-3-(3-indolyl)propionylamino]-3-phenylpropionamide] | 1380 nM |
| CC(=O)N[C@@H](Cc1c[nH]c2ccccc12)C(=O)N[C@@H](Cc1ccccc1)C(=O)N[C@@H](CCCNC(=N)N)C(=O)c1nc2ccc(C(=O)O)cc2s1 [PK-1-103, 2-[(S)-2-[(S)-2-[(S)-2-acetylamino-3-(3-indolyl)propionylamino]-3-phenylpropionylamino]-5-guanidinovaleryl]-1,3-benzothiazole-6-carboxylic acid] | 116 nM |
| CC(=O)N[C@@H](Cc1c[nH]c2ccccc12)C(=O)N[C@@H](CC(C)C)C(=O)N[C@@H](CCCNC(=N)N)C(=O)c1nc2ccc(C(=O)O)cc2s1 [PK-1-105, 2-[(S)-2-[(S)-2-[(S)-2-acetylamino-3-(3-indolyl)propionylamino]-4-methylvalerylamino]-5-guanidinovaleryl]-1,3-benzothiazole-6-carboxylic acid] | 721 nM |
